Tested on: MDA-MB-231 TNBC cells
Test: Alamar blue viability assay, MDA-MB-231 TNBC cells with or without RANK knockdown
Format: cell-based, human
Conditions: 7 days
Procedure: For lentiviral transduction, MDA-MB-231GFP+Luc+ cells were seeded in 24-well plates, at a density of 4×10^4 cells/well. 24 hours after seeding, medium was replaced by fresh medium containing 8 μg/ml Polybrene (Sigma) and RANK shRNA (h) lentiviral particles (15-20 μl/well; sc-42960-V, Santa Cruz) or control shRNA lentiviral particles (15-20 μl/well; sc-108080, Santa Cruz). Cells were selected with 0.5 μg/mL Puromycin dihydrochloride (Sigma) starting three days after transduction.
Cells were seeded in 96 well-plates (2-5×10^4 cells/mL), with or without paclitaxel (Y0000698, Sigma), doxorubicin hydrochloride (D2975000, Sigma), palbociclib (PD 0332991 isethionate, PZ0199, Sigma), ribociclib (LEE011 succinate, SC-488174, Santa Cruz), abemaciclib mesylate (LY2835219, S7158, Selleckchem), fulvestrant (S1191, Selleckchem), everolimus (#73122, StemCell Technologies), full length human OPG (SRP3132, Sigma), and OPG-Fc (Amgen). Medium was replaced every 2 days. After 7 days, 1:10 Alamar blue (Invitrogen) was added to each well and fluorescence was measured 2 hours after incubation (excitation 560 nm; emission 590 nm) in an Infinite M200 microplate reader (Tecan).
RANK KD clones were first generated for use in sensitivity assays. Briefly, MCF-7GFP+Luc+ cells were seeded in multi-well plates and then exposed to fresh medium comprising RANK shRNA (h) lentiviral particles or control shRNA lentiviral particles. The transduced cells were selected using Puromycin dihydrochloride starting three days post-transduction.

CC(=O)c1c(C)c2cnc(Nc3ccc(N4CCNCC4)cn3)nc2n(C2CCCC2)c1=O [palbociclib]
sensitivity to CDK4/6 inhibitor (cell viability) (MDA-231 cells and MDA-231 shControl cells): resistance
sensitivity to CDK4/6 inhibitor (cell viability) (TNBC RANK KD cells (MDA-231 shRANK) vs RANK expressing cells): restored sensitivity

Reference: US20220195059A1, “Rank Pathway Inhibitors in Combination with CDK Inhibitors” (INSTITUTO DE MEDICINA MOLECULAR JOÃO LOBO ANTUNES, priority 2019, published 2022)
